Patent publication US20250129067A1 (Progentos Therapeutics, Inc., priority 2021, published 2025)
Where two headings read alike, the source gives them in different places.

How the values were obtained:
[1] = system: GPR17+ cells (newly differentiated oligodendrocytes); assay: In vivo OPC differentiation, GPR17+ cells in brain; conditions: for In vivo GPR17+ cells, GPR17 Fold Induction (Over Vehicle): adult female C57BL/6 mice, PO or IP, treatment period 1-3 days, entire brain, fold change over vehicle treated animals
PDGFRα = PDGFRα (Homo sapiens (Human), UniProt P16234); assay: PDGFRα kinase enzyme assay (Promega PDGFRα Kinase Enzyme System, ADP-Glo); type: biochemical; conditions: 150 uM ATP
PDGFRα, sequence (P16234 24-1089): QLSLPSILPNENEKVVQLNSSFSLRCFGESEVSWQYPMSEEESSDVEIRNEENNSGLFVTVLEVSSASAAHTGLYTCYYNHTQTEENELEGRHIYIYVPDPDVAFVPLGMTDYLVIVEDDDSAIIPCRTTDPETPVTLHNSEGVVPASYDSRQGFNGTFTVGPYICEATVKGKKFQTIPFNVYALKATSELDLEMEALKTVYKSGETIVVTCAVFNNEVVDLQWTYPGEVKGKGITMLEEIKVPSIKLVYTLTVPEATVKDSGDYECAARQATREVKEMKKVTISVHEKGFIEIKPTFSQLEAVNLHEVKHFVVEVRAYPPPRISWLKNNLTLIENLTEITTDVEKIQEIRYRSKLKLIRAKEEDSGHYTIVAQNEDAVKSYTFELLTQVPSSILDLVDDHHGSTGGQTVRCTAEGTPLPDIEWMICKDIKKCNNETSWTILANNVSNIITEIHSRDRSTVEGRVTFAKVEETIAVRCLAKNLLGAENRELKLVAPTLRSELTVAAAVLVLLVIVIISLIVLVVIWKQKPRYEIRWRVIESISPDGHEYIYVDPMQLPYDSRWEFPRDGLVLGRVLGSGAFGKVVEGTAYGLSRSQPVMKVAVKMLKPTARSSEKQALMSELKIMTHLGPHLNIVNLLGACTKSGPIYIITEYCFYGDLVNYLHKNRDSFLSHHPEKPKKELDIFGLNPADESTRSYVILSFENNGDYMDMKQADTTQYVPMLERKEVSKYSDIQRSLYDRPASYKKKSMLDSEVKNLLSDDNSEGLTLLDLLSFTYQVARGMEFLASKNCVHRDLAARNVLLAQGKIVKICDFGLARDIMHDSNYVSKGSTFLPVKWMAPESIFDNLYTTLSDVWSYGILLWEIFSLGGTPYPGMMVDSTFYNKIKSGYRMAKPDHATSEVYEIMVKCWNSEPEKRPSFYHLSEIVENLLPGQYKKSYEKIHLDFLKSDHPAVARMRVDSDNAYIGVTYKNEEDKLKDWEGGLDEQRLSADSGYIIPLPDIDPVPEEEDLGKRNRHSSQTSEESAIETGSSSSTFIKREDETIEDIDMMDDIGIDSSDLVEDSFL
Outline: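 Purified PDGFRα protein (20 ng) reacted with test compound per the Promega kinase system protocol. ADP formed was measured by ADP-Glo luminescence against a standard curve, giving IC50.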

[2] = system: Oligodendrocyte progenitor cells (OPCs); assay: In vitro OPC differentiation assay, GPR17 expression (immunocytochemistry); conditions: 72 hours; for GPR17 Fold Induction (Over Vehicle; 3 μM): 3 μM (10× concentration, final 0.3 μM), fold change over vehicle; for GPR17 Fold Induction (Over Vehicle; 5 μM): primary rat OPCs, 5 μM (10x; final 0.5 μM per method), percent GPR17+ cells as fold change over vehicle
[3] = 11-point dose response, 10,000 nM to 0.169 nM, BLQ = below limit of quantitation, read-out: IC50 Values on PDGFRα Kinase Inhibition, IC50
[4] = 20 ng purified PDGFRα, Poly (Glu4Tyr1) substrate, two hours, 11-point dose response, read-out: IC50 Values on PDGFRα Kinase Inhibition

SMILES	GPR17 Fold Induction (Over Vehicle; 3 μM) [2]	IC50 (PDGFRα; [3]) [nM]	further results
CCN(CC)CCNC(=O)c1c(C)[nH]c(/C=C2\C(=O)Nc3ccc(-c4csc(-c5ccccc5)n4)cc32)c1C [Amcasertib, amcasertib, reference compound]	–	–	In vivo GPR17+ cells, GPR17 Fold Induction (Over Vehicle) [1]: 1.49
S=C(NCc1ccc2c(c1)OCO2)N1CCN(c2ncnc3c2oc2ccccc23)CC1 [Amuvatinib, amuvatinib, reference compound]	–	–	In vivo GPR17+ cells, GPR17 Fold Induction (Over Vehicle) [1]: 2.18
Cn1cc(-c2cn3c(N4CCN(c5ncc(Cc6ccccc6)cn5)CC4)cnc3cn2)cn1 [Compound 21, 3-[4-(5-benzylpyrimidin-2-yl)piperazin-1-yl]-6-(1-methyl-1H-pyrazol-4-yl)imidazo[1,2-a]pyrazine]	–	–	fold induction at 150 mg/kg ([1]; Mus musculus, ip, 24 h, read-out: GPR17 Fold Induction (Over Vehicle)): 1.48
C[C@@H](NC(=O)N1CCN(c2cnn3cc(-c4cnn(C)c4)ccc23)CC1)c1ccc(C(F)(F)F)cc1 [Compound 288, 4-[6-(1-methyl-1H-pyrazol-4-yl)pyrazolo[1,5-a]pyridin-3-yl]-N-{(1R)-1-[4-(trifluoromethyl)phenyl]ethyl}piperazine-1-carboxamide]	5.92	–	IC50 Values on PDGFRα Kinase Inhibition, IC50 (nM) (PDGFRα; 11-point dose response, 10,000 nM to 0.169 nM, BLQ = below limit of quantitation): BLQ
C[C@@H](OC(=O)N1CCN(c2cnn3cc(-c4cnn(C)c4)ccc23)CC1)c1ccncc1 [Compound 289, (R)-1-(pyridin-4-yl)ethyl 4-(6-(1-methyl-1H-pyrazol-4-yl)pyrazolo[1,5-a]pyridin-3-yl)piperazine-1-carboxylate]	7.44	430	–
[2H]C1([2H])N(C(=O)O[C@H](C)c2ccc(Cl)cc2)C([2H])([2H])C([2H])([2H])N(c2cnn3cc(-c4cnn(C)c4)ccc23)C1([2H])[2H] [Compound 290, (R)-1-(4-chlorophenyl)ethyl 4-(6-(1-methyl-1H-pyrazol-4-yl)pyrazolo[1,5-a]pyridin-3-yl)piperazine-1-carboxylate-2,2,3,3,5,5,6,6-d8]	10.47	0.56	–
Cn1cc(-c2ccc3c(N4CCN(S(=O)(=O)NCc5ccc(Cl)cc5)CC4)cnn3c2)cn1 [Compound 292, N-(4-chlorobenzyl)-4-(6-(1-methyl-1H-pyrazol-4-yl)pyrazolo[1,5-a]pyridin-3-yl)piperazine-1-sulfonamide]	9.78	50	–
C[C@@H](NS(=O)(=O)N1CCN(c2cnn3cc(-c4cnn(C)c4)ccc23)CC1)c1ccc(Cl)cc1 [Compound 293, (R)-N-(1-(4-chlorophenyl)ethyl)-4-(6-(1-methyl-1H-pyrazol-4-yl)pyrazolo[1,5-a]pyridin-3-yl)piperazine-1-sulfonamide]	7.29	5250	–
Cn1cc(-c2ccc3c(N4CCN(S(=O)(=O)NCc5ccc(C(F)(F)F)cc5)CC4)cnn3c2)cn1 [Compound 294, 4-(6-(1-methyl-1H-pyrazol-4-yl)pyrazolo[1,5-a]pyridin-3-yl)-N-(4-(trifluoromethyl)benzyl)piperazine-1-sulfonamide]	9.58	5.96	–
Cn1cc(-c2cnn3c(N4CCN(C(=O)NCc5ccc(C(F)(F)F)cc5)CC4)cnc3c2)cn1 [Compound 295, 4-(7-(1-methyl-1H-pyrazol-4-yl)imidazo[1,2-b]pyridazin-3-yl)-N-(4-(trifluoromethyl)benzyl)piperazine-1-carboxamide]	8.65	31.7	–
Cn1cc(-c2cnn3c(N4CCN(S(=O)(=O)NCc5ccc(C(F)(F)F)cc5)CC4)cnc3c2)cn1 [Compound 296, 4-(7-(1-methyl-1H-pyrazol-4-yl)imidazo[1,2-b]pyridazin-3-yl)-N-(4-(trifluoromethyl)benzyl)piperazine-1-sulfonamide]	10.65	397	–
CCC(O)c1ccc2c(N3CCN(C(=O)OC(C)(C)C)CC3)cnn2c1 (stereo not drawn) [Compound 298, tert-butyl 4-(6-(1-hydroxypropyl)pyrazolo[1,5-a]pyridin-3-yl)piperazine-1-carboxylate]	1.56	> 10000	–
Cn1cc(-c2ccc3c(C(O)CCc4ncc(Cc5ccccc5)cn4)cnn3c2)cn1 (stereo not drawn) [Compound 299, 3-(5-benzylpyrimidin-2-yl)-1-(6-(1-methyl-1H-pyrazol-4-yl)pyrazolo[1,5-a]pyridin-3-yl)propan-1-ol]	1.43	> 10000	–
Cn1cc(-c2ccc3c(N4CC=C(c5ncc(Cc6ccccc6)cn5)CC4)cnn3c2)cn1 [Compound 300, 3-(4-(5-benzylpyrimidin-2-yl)-3,6-dihydropyridin-1 (2H)-yl)-6-(1-methyl-1H-pyrazol-4-yl)pyrazolo[1,5-a]pyridine]	1.24	3550	–
Cn1cc(-c2ccc3c(N4CCN(c5ncc(Cc6ncon6)cn5)CC4)cnn3c2)cn1 [Compound 301, 3-((2-(4-(6-(1-methyl-1H-pyrazol-4-yl)pyrazolo[1,5-a]pyridin-3-yl)piperazin-1-yl)pyrimidin-5-yl)methyl)-1,2,4-oxadiazole]	2.96	> 10000	–
Cn1cc(-c2ccc3c(N4CCN(c5ncc(Cc6ccsc6)cn5)CC4)cnn3c2)cn1 [Compound 302, 6-(1-methyl-1H-pyrazol-4-yl)-3-(4-(5-(thiophen-3-ylmethyl)pyrimidin-2-yl)piperazin-1-yl)pyrazolo[1,5-a]pyridine]	8.86	137	–
Cn1cc(-c2ccc3c(N4CCN(c5cnc(Cc6ccccc6)cn5)CC4)cnn3c2)cn1 [Compound 303, 3-(4-(5-benzylpyrazin-2-yl)piperazin-1-yl)-6-(1-methyl-1H-pyrazol-4-yl)pyrazolo[1,5-a]pyridine]	2.52	> 10000	–
CC(C)(C)OC(=O)N1CCN(c2cnn3cc(C4CCOC4)ccc23)CC1 (stereo not drawn) [Compound 304, tert-butyl 4-(6-(tetrahydrofuran-3-yl)pyrazolo[1,5-a]pyridin-3-yl)piperazine-1-carboxylate]	1.77	> 10000	–
COC(=O)[C@@]1(O)C[C@H]2O[C@]1(C)n1c3ccccc3c3c4c(c5c6ccccc6n2c5c31)C(=O)NC4 [Compound K252a, K252a, reference compound]	–	–	IC50 (PDGFRα; [4]): 427 nM; GPR17 Fold Induction (Over Vehicle; 5 μM) [2]: 2.53
Cc1ccc(F)c(NC(=O)Nc2ccc(-c3cccc4[nH]nc(N)c34)cc2)c1 [Linifanib (ABT-869), linifanib, reference compound]	–	–	IC50 (PDGFRα; [4]): 1210 nM; GPR17 Fold Induction (Over Vehicle; 5 μM) [2]: 4.68
CN(C[C@@H]1COCCO1)S(=O)(=O)Nc1ccc2ccc3ncc(-c4cnn(C)c4)cc3c(=O)c2c1 [MK-2461, reference compound]	–	–	In vivo GPR17+ cells, GPR17 Fold Induction (Over Vehicle) [1]: 1.47
Cc1[nH]c(/C=C2\C(=O)Nc3ccccc32)c(C)c1CCC(=O)O [Orantinib, orantinib, reference compound]	–	–	In vivo GPR17+ cells, GPR17 Fold Induction (Over Vehicle) [1]: 2.43
Cc1ccccc1C(OCCN(C)C)c1ccccc1 (stereo not drawn) [Orphenadrine]	–	–	In vivo GPR17+ cells, GPR17 Fold Induction (Over Vehicle) [1]: 1.07
Cc1[nH]c(/C=C2\C(=O)Nc3ccc(F)cc32)c(C)c1C(=O)NC[C@H](O)CN1CCOCC1 [SU-14813, reference compound]	–	–	GPR17 Fold Induction (Over Vehicle; 5 μM) [2]: 4.12; In vivo GPR17+ cells, GPR17 Fold Induction (Over Vehicle) [1]: 2.63
COc1ccc(-c2cncc(N[C@@H](C)c3cccc(NC(=O)c4cncc(C)c4)c3)n2)cc1OC [Seralutinib, seralutinib, reference compound]	–	–	IC50 (PDGFRα; [4]): 228 nM; GPR17 Fold Induction (Over Vehicle; 5 μM) [2]: 3.53

The next lines start with results.

GPR17 Fold Induction (Over Vehicle; 3 μM) [2]	IC50 (PDGFRα; [3]) [nM]	SMILES	further results
4.37	2.31	Cn1cc(-c2ccc3c(N4CCN(c5nnc(Cc6ccccc6)s5)CC4)cnn3c2)cn1 [Compound 306, 2-benzyl-5-(4-(6-(1-methyl-1H-pyrazol-4-yl)pyrazolo[1,5-a]pyridin-3-yl)piperazin-1-yl)-1,3,4-thiadiazole]	–
4.20	2150	Cn1cc(-c2ccc3c(N4CCN(C(=O)OC5CC(F)(F)C5)CC4)cnn3c2)cn1 [Compound 307, 3,3-difluorocyclobutyl 4-[6-(1-methyl-1H-pyrazol-4-yl)pyrazolo[1,5-a]pyridin-3-yl]piperazine-1-carboxylate]	–
3.67	2110	Cn1cc(-c2ccc3c(N4CCN(C(=O)OCC5CC(F)(F)C5)CC4)cnn3c2)cn1 [Compound 308, (3,3-difluorocyclobutyl)methyl 4-[6-(1-methyl-1H-pyrazol-4-yl)pyrazolo[1,5-a]pyridin-3-yl]piperazine-1-carboxylate]	–
4.86	> 10000	CC1CC(COC(=O)N2CCN(c3cnn4cc(-c5cnn(C)c5)ccc34)CC2)C1 (stereo not drawn) [Compound 310, (3-methylcyclobutyl)methyl 4-[6-(1-methyl-1H-pyrazol-4-yl)pyrazolo[1,5-a]pyridin-3-yl]piperazine-1-carboxylate]	–
1.64	7550	Cn1cc(-c2ccc3c(N4CCN(C(=O)O[C@@H]5CCc6cc(Cl)ccc65)CC4)cnn3c2)cn1 [Compound 314, (1R)-5-chloro-2,3-dihydro-1H-inden-1-yl 4-[6-(1-methyl-1H-pyrazol-4-yl)pyrazolo[1,5-a]pyridin-3-yl]piperazine-1-carboxylate]	–
